From the supplement of paper PMC11451515

Test system: SEM cells
Assay: cell viability relative to DMSO control; higher = less cytotoxic
Conditions: 48 h
Procedure, shortened: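 NOMO1, SEM and P12-Ichikawa leukemia cells spent at least four passages adapting to each medium before use. They were seeded at 500 cells/well (NOMO1, SEM) or 1000 cells/well (P12-Ichikawa) in 5 μl in 1536-well plates and pin-dosed with library compounds in DMSO at 11 threefold steps from 47 μM down to 0.79 nM. After 48 h at 37°C, CellTiter-Glo One luminescence was read. Viability is reported as a percentage of the DMSO wells on each plate, with cell-free wells as background.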

[1] = HPLM + 10% dialyzed FBS, 0.000781 µM
[2] = HPLM + 10% dialyzed FBS, 0.00234 µM
[3] = HPLM + 10% dialyzed FBS, 0.00702 µM
[4] = HPLM + 10% dialyzed FBS, 0.0211 µM
[5] = HPLM + 10% dialyzed FBS, 0.0632 µM
[6] = HPLM + 10% dialyzed FBS, 0.19 µM
[7] = HPLM + 10% dialyzed FBS, 0.569 µM
[8] = HPLM + 10% dialyzed FBS, 1.71 µM
[9] = HPLM + 10% dialyzed FBS, 5.12 µM
[10] = HPLM + 10% dialyzed FBS, 15.4 µM
[11] = HPLM + 10% dialyzed FBS, 46.1 µM
[12] = RPMI 5 mM glucose + 10% FBS, 0.000781 µM
[13] = RPMI 5 mM glucose + 10% FBS, 0.00234 µM
[14] = RPMI 5 mM glucose + 10% FBS, 0.00702 µM
[15] = RPMI 5 mM glucose + 10% FBS, 0.0211 µM
[16] = RPMI 5 mM glucose + 10% FBS, 0.0632 µM
[17] = RPMI 5 mM glucose + 10% FBS, 0.19 µM
[18] = RPMI 5 mM glucose + 10% FBS, 0.569 µM
[19] = RPMI 5 mM glucose + 10% FBS, 1.71 µM
[20] = RPMI 5 mM glucose + 10% FBS, 5.12 µM
[21] = RPMI 5 mM glucose + 10% FBS, 15.4 µM
[22] = RPMI 5 mM glucose + 10% FBS, 46.1 µM
[23] = RPMI 5 mM glucose + 10% dialyzed FBS, 0.000781 µM
[24] = RPMI 5 mM glucose + 10% dialyzed FBS, 0.00234 µM
[25] = RPMI 5 mM glucose + 10% dialyzed FBS, 0.00702 µM
[26] = RPMI 5 mM glucose + 10% dialyzed FBS, 0.0211 µM
[27] = RPMI 5 mM glucose + 10% dialyzed FBS, 0.0632 µM
[28] = RPMI 5 mM glucose + 10% dialyzed FBS, 0.19 µM
[29] = RPMI 5 mM glucose + 10% dialyzed FBS, 0.569 µM
[30] = RPMI 5 mM glucose + 10% dialyzed FBS, 1.71 µM
[31] = RPMI 5 mM glucose + 10% dialyzed FBS, 5.12 µM
[32] = RPMI 5 mM glucose + 10% dialyzed FBS, 15.4 µM
[33] = RPMI 5 mM glucose + 10% dialyzed FBS, 46.1 µM

For `Nc1ccc([S+](=O)([O-])Nc2ccnn2-c2ccccc2)cc1`, the cell viability [1] was 76.6%, the cell viability [2] was 89.9% and the cell viability [3] was 80.9%. For the same molecule, the cell viability [4] was 97.8%, the cell viability [5] was 87.8% and the cell viability [6] was 98.8%. It also gave a cell viability [7] of 109%, a cell viability [8] of 95.5% and a cell viability [9] of 94.8%. For the same molecule, the cell viability [10] was 93.8%, the cell viability [11] was 93% and the cell viability [12] was 89.4%. It also gave a cell viability [13] of 92.8%, a cell viability [14] of 105% and a cell viability [15] of 102%. The cell viability [16] was 88.8%, the cell viability [17] was 98.2% and the cell viability [18] was 114%. The cell viability [19] was 102%, the cell viability [20] was 89% and the cell viability [21] was 96.2%. It also gave a cell viability [22] of 116%, a cell viability [23] of 95.1% and a cell viability [24] of 89.5%. For the same molecule, the cell viability [25] was 104%, the cell viability [26] was 86.2% and the cell viability [27] was 97.5%. It also gave a cell viability [28] of 88%, a cell viability [29] of 107% and a cell viability [30] of 94.8%. It also gave a cell viability [31] of 115%, a cell viability [32] of 106% and a cell viability [33] of 104%.

Molecule `CCCCN(CCCC)CC(O)c1cc(Cl)cc2c1-c1ccc(Cl)cc1/C2=C/c1ccc(Cl)cc1` (stereo unspecified) has a cell viability [1] of 93.1%, a cell viability [2] of 95.5% and a cell viability [3] of 93.1%. It also gave a cell viability [4] of 108%, a cell viability [5] of 99% and a cell viability [6] of 107%. The cell viability [7] was 111%, the cell viability [8] was 105% and the cell viability [9] was 109%. It also gave a cell viability [10] of 104%, a cell viability [11] of 106% and a cell viability [12] of 80.9%. It also gave a cell viability [13] of 95.7%, a cell viability [14] of 85.6% and a cell viability [15] of 95.7%. It also gave a cell viability [16] of 95.1%, a cell viability [17] of 98.4% and a cell viability [18] of 94.6%. For the same molecule, the cell viability [19] was 89.9%, the cell viability [20] was 98.6% and the cell viability [21] was 91.2%. For the same molecule, the cell viability [22] was 78.9%, the cell viability [23] was 88.9% and the cell viability [24] was 94.4%. The cell viability [25] was 89.3%, the cell viability [26] was 89.6% and the cell viability [27] was 78.9%. It also gave a cell viability [28] of 94.4%, a cell viability [29] of 94.5% and a cell viability [30] of 97.7%. For the same molecule, the cell viability [31] was 101%, the cell viability [32] was 80.5% and the cell viability [33] was 91.3%.

Work on `CCCCCNC(=O)N1CCC(CN(Cc2ccc(Cl)cc2)Cc2ccc([N+](=O)[O-])s2)C1` (stereo unspecified) yielded a cell viability [12] of 113%, a cell viability [13] of 118% and a cell viability [14] of 129%. It also gave a cell viability [15] of 116%, a cell viability [16] of 134% and a cell viability [17] of 120%. The cell viability [18] was 122%, the cell viability [19] was 126% and the cell viability [20] was 121%. For the same molecule, the cell viability [21] was 79.5%, the cell viability [22] was 56.1% and the cell viability [23] was 113%. The cell viability [24] was 134%, the cell viability [25] was 108% and the cell viability [26] was 107%. For the same molecule, the cell viability [27] was 114%, the cell viability [28] was 128% and the cell viability [29] was 121%. The cell viability [30] was 127%, the cell viability [31] was 132% and the cell viability [32] was 102%. For the same molecule, the cell viability [33] was 48.2%.

In the case of `O=C(O)CCNC(=O)c1ccc(/N=N/c2ccc(O)c(C(=O)O)c2)cc1`, the cell viability [1] is reported as 116%, the cell viability [2] is reported as 108% and the cell viability [3] is reported as 118%. For the same molecule, the cell viability [4] was 109%, the cell viability [5] was 106% and the cell viability [6] was 105%. For the same molecule, the cell viability [7] was 98.9%, the cell viability [8] was 105% and the cell viability [9] was 103%. For the same molecule, the cell viability [10] was 101% and the cell viability [11] was 96.7%.

Work on `O=C(O)c1cc(/N=N/c2ccc([S+](=O)([O-])Nc3ccccn3)cc2)ccc1O` yielded a cell viability [1] of 84.9%, a cell viability [2] of 108% and a cell viability [3] of 95.3%. For the same molecule, the cell viability [4] was 76.3%, the cell viability [5] was 101% and the cell viability [6] was 103%. For the same molecule, the cell viability [7] was 122%, the cell viability [8] was 106% and the cell viability [9] was 110%. The cell viability [10] was 90.8%, the cell viability [11] was 98.2% and the cell viability [12] was 98.8%. For the same molecule, the cell viability [13] was 101%, the cell viability [14] was 108% and the cell viability [15] was 71.9%. For the same molecule, the cell viability [16] was 103%, the cell viability [17] was 114% and the cell viability [18] was 112%. For the same molecule, the cell viability [19] was 97.2%, the cell viability [20] was 89.3% and the cell viability [21] was 116%. For the same molecule, the cell viability [22] was 75.1%, the cell viability [23] was 91.7% and the cell viability [24] was 102%. It also gave a cell viability [25] of 96.2%, a cell viability [26] of 76.8% and a cell viability [27] of 117%. For the same molecule, the cell viability [28] was 91.5%, the cell viability [29] was 97.5% and the cell viability [30] was 106%. The cell viability [31] was 95.5%, the cell viability [32] was 89.4% and the cell viability [33] was 82.1%.

`CN1CC(=O)N2[C@H](c3ccc4c(c3)OCO4)c3[nH]c4ccccc4c3C[C@@H]2C1=O` was tested, and the cell viability [1] was 98.8%, the cell viability [2] was 88.6% and the cell viability [3] was 97.2%. It also gave a cell viability [4] of 96.3%, a cell viability [5] of 98% and a cell viability [6] of 102%. It also gave a cell viability [7] of 108%, a cell viability [8] of 106% and a cell viability [9] of 93.9%. It also gave a cell viability [10] of 100%, a cell viability [11] of 85.9% and a cell viability [12] of 92.6%. The cell viability [13] was 85.3%, the cell viability [14] was 85.8% and the cell viability [15] was 97.9%. For the same molecule, the cell viability [16] was 102%, the cell viability [17] was 108% and the cell viability [18] was 92.6%. It also gave a cell viability [19] of 88.8%, a cell viability [20] of 82.1% and a cell viability [21] of 85.3%. It also gave a cell viability [22] of 83.5%, a cell viability [23] of 94% and a cell viability [24] of 88.8%. It also gave a cell viability [25] of 88.3%, a cell viability [26] of 108% and a cell viability [27] of 106%. It also gave a cell viability [28] of 69.6%, a cell viability [29] of 105% and a cell viability [30] of 113%. For the same molecule, the cell viability [31] was 105%, the cell viability [32] was 89% and the cell viability [33] was 95.4%.

With `Cc1ccc([S+](=O)([O-])OCC(=O)Nc2ccc(C(=O)O)c(O)c2)cc1` the cell viability [1] was 101%, the cell viability [2] was 97.1% and the cell viability [3] was 127%. It also gave a cell viability [4] of 118%, a cell viability [5] of 125% and a cell viability [6] of 106%. The cell viability [7] was 125%, the cell viability [8] was 132% and the cell viability [9] was 136%. For the same molecule, the cell viability [10] was 137%, the cell viability [11] was 80.5% and the cell viability [12] was 107%. The cell viability [13] was 109%, the cell viability [14] was 124% and the cell viability [15] was 122%. The cell viability [16] was 138%, the cell viability [17] was 130% and the cell viability [18] was 150%. For the same molecule, the cell viability [19] was 142%, the cell viability [20] was 153% and the cell viability [21] was 81.9%. For the same molecule, the cell viability [22] was 11.9%, the cell viability [23] was 99.7% and the cell viability [24] was 103%. The cell viability [25] was 134%, the cell viability [26] was 131% and the cell viability [27] was 123%. The cell viability [28] was 140%, the cell viability [29] was 125% and the cell viability [30] was 147%. The cell viability [31] was 144%, the cell viability [32] was 109% and the cell viability [33] was 43.7%.

`O=C(O)c1cccnc1Nc1cccc(C(F)(F)F)c1` was tested, and the cell viability [1] was 92.1%, the cell viability [2] was 105% and the cell viability [3] was 99.1%. For the same molecule, the cell viability [4] was 103%, the cell viability [5] was 119% and the cell viability [6] was 117%. It also gave a cell viability [7] of 40.9%, a cell viability [8] of 65.2% and a cell viability [9] of 117%. The cell viability [10] was 120%, the cell viability [11] was 111% and the cell viability [12] was 102%. For the same molecule, the cell viability [13] was 97.1%, the cell viability [14] was 90.9% and the cell viability [15] was 106%. The cell viability [16] was 108%, the cell viability [17] was 111% and the cell viability [18] was 65.9%. The cell viability [19] was 55.2%, the cell viability [20] was 98.5% and the cell viability [21] was 80.6%. For the same molecule, the cell viability [22] was 75.6%, the cell viability [23] was 105% and the cell viability [24] was 133%. It also gave a cell viability [25] of 110%, a cell viability [26] of 106% and a cell viability [27] of 119%. The cell viability [28] was 125%, the cell viability [29] was 59.5% and the cell viability [30] was 54.7%. The cell viability [31] was 121%, the cell viability [32] was 108% and the cell viability [33] was 107%.
